Biological target: Nicotinamide phosphoribosyltransferase (Homo sapiens, UniProt P43490)
Assay: Biochemical Inhibition Assay: The NAMPT Enzymatic Reaction. The NAMPT enzymatic reactions were carried out in Buffer A (50 mM Hepes pH 7.5, 50 mM NaCl, 5 mM MgCl2, and 1 mM THP) in 96-well V-bottom plates. The compound titrations were performed in a separate dilution plate by serially diluting the compounds in DMSO to make a 100x stock. Buffer A (89 uL) containing 33 nM of NAMPT protein was added to 1 uL of 100x compound plate containing controls (e.g. DMSO or blank). The compound and enzyme mixture was incubated for 15 min at rt, then 10 uL of 10x substrate and co-factors in Buffer A were added to the test well to make a final concentration of 1 uM NAM, […] 5-Phospho-D-ribose 1-diphosphate (PRPP), and 2.5 mM Adenosine 5'-triphosphate (ATP). The reaction was allowed to proceed for 30 min at rt, then was quenched with the addition of 11 uL of a solution of formic acid and L-Cystathionine to make a final concentration of 1% formic acid and 10 uM L-Cystathionine. Background and signal strength was determined by addition (or non-addition) of a serial dilution of NMN to a pre-quenched enzyme and cofactor mix.

Chain of Nicotinamide phosphoribosyltransferase (P43490 whole entry): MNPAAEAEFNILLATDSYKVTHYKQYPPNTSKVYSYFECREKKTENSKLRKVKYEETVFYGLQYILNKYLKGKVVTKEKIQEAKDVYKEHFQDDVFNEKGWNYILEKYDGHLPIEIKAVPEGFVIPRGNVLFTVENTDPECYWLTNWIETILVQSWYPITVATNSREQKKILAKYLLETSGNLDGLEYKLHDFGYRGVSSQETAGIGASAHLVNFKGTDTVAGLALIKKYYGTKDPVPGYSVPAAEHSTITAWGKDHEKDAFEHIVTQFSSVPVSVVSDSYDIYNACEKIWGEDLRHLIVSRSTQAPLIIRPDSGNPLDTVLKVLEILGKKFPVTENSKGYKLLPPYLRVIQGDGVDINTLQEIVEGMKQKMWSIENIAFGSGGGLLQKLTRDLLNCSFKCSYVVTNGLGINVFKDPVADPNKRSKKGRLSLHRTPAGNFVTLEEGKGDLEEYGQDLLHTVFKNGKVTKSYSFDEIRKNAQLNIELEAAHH

CN1CCN(c2ccc(S(=O)(=O)c3ccc(CNC(=O)c4cc5ccncc5o4)nc3)cn2)CC1
IC50: 0.916 nM

— ChEMBL document CHEMBL3886983, “Pyridinyl and pyrimidinyl sulfoxide and sulfone derivatives” (2016)
